Assay [1] addresses T1, Microsomal triglyceride transfer protein large subunit (Bos taurus, UniProt P55156).
T1 sequence (P55156 whole entry): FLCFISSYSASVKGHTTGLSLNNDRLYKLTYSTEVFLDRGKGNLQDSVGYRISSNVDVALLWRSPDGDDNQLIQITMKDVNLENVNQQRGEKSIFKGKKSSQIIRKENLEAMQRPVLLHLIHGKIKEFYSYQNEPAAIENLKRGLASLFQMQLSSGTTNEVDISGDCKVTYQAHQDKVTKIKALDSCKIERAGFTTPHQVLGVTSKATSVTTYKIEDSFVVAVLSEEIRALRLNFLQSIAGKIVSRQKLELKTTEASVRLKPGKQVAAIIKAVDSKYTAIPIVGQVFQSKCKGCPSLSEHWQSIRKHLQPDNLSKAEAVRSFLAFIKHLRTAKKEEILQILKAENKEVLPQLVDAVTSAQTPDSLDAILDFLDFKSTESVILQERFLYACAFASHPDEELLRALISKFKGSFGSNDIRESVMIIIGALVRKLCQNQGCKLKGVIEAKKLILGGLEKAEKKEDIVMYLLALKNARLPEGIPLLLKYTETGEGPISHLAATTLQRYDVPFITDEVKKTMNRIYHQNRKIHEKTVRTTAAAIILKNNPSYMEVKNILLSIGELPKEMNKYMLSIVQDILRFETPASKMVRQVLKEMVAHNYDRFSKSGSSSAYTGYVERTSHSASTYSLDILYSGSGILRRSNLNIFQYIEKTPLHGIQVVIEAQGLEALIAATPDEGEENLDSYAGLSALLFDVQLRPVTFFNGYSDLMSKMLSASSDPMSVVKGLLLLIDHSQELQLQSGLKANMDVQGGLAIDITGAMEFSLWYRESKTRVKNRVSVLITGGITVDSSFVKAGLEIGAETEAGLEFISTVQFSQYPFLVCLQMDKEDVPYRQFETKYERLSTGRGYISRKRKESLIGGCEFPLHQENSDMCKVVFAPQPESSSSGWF
The assay is described as follows: Inhibitory activity against microsomal triglyceride transfer protein (MTP).

In assay [2] the test system is HepG2. The assay is described as follows: Effective concentration against secretion of apolipoprotein A1 (ApoA1) from HepG2 cell using apolipoprotein secretion assay. The assay is classed as functional, cell-based. Conditions: Homo sapiens.
In assay [3] the test system is HepG2. The assay can be described thus: Effective concentration against secretion of apolipoprotein B (ApoB) from HepG2 cell using apolipoprotein secretion assay. Conditions: Homo sapiens. Type of assay: functional, cell-based.
For assay [4], the system named is Rattus norvegicus. The assay is described as follows: Inhibitory activity (25 mg/kg) against hepatic lipoprotein secretion. Type of assay: functional.
Assay [5] relates to Rattus norvegicus. The assay can be described thus: Ability to inhibit lipoprotein production (in vivo) after oral administration (50 mg/kg) using fasted triton rat assay;IA: inactive. Type of assay: functional, organism-based.
Assay [6] relates to Rattus norvegicus. The assay is described as follows: Effective dose for inhibition of lipoprotein production (in vivo) after intravenous administration using fasted triton rat assay. Type of assay: functional.
Assay [7] relates to HepG2. The assay can be described thus: Effective concentration against apolipoprotein A1 (ApoA1) from HepG2 cell using apolipoprotein secretion assay. The assay is classed as functional, cell-based. Conditions: Homo sapiens.
Assay [8] concerns HepG2. The assay is described as follows: Effective concentration against apolipoprotein B (ApoB) from HepG2 cell using apolipoprotein secretion assay. Conditions: Homo sapiens. Type of assay: functional, cell-based.
In assay [9] the test system is Cricetinae gen. sp. The assay is described as follows: Inhibitory activity against plasma cholesterol level after oral administration (15 mg/kg/day) over 3 days in hamsters. The assay is classed as functional, Cricetulus griseus.
The subject of assay [10] is Cricetinae gen. sp. The assay can be described thus: Inhibitory activity against plasma cholesterol level after oral administration (qd) (100 mg/kg) for 3 days in hamsters. The assay is classed as functional, Cricetulus griseus.
Assay [11] has as its system Rattus norvegicus. The assay can be described thus: Effective dose for inhibition of lipoprotein production (in vivo) after oral administration using fasted triton rat assay. The assay is classed as functional.
Assay [12] has as its system Cricetinae gen. sp. The assay can be described thus: Inhibitory activity against plasma cholesterol level after oral administration (15 mg/kg/day) in hamsters. Type of assay: functional, Cricetulus griseus.

The source made the active and inactive calls. The rule behind the calls is not given here.

`CCCCOP(=O)(CCCCC1(C(=O)OC)c2ccccc2-c2ccccc21)OCCCC` came in with a 50% inhibitory concentration (IC50) in assay [1] of 450 nM.
As for `CCCCOP(=O)(CCCCC1(C(=O)NCc2ccccc2)c2ccccc2-c2ccccc21)OCCCC`, the figures for the EC50 with HepG2 [2] and in the assay with HepG2 [3] were > 1000 nM and 58 nM, respectively. Moreover, the IC50 in [1] is 250 nM.
On to `CC(C)OP(=O)(CCCCC1(C(=O)NCC(F)(F)F)c2ccccc2-c2ccccc21)OC(C)C`, for which the IC50 in assay [1] was 280 nM.
Regarding `CCCCOP(=O)(CCCCC1(C(=O)NCCc2ccc(OC)cc2)c2ccccc2-c2ccccc21)OCCCC`, the EC50 is > 330 nM in the assay on HepG2 [2] and 23 nM in the assay on HepG2 [3]. Further, the IC50 in [1] was 21 nM. Also, the Inhibition in the assay on Rattus norvegicus [4] turned out to be 15%.
In turn, `CC(C)COP(=O)(CCCCC1(C(=O)NCC(F)(F)F)c2ccccc2-c2ccccc21)OCC(C)C` had an IC50 in [1] of 55 nM.
On the same count and under the same terms, the figure for `CCCCOP(=O)(CCCSc1nc2ccc(OCC)cc2o1)OCCCC` is 5000 nM; for `CCCOP(=O)(CCCCC1(C(=O)NCC(F)(F)F)c2ccccc2-c2ccccc21)OCCC` it is 90 nM.
Consider `CCCCOP(=O)(CCCCC1(C(=O)NCCC)c2ccccc2-c2ccccc21)OCCCC`, for which the EC50 is 8000 nM with HepG2 [2] and 100 nM in the assay with HepG2 [3]. This compound also gave an IC50 in assay [1] of 14 nM. In the assay with Rattus norvegicus [5], the result was inactive. The compound further displayed an ED30 in the assay on Rattus norvegicus [6] of 15 mg/kg.
As for `CCCCOP(=O)(CCCSc1cccs1)OCCCC`, the IC50 in assay [1] was > 100000 nM.
The same measure, in the same setting: the figure for `CC(C)(C)COP(=O)(CCCCC1(C(=O)NCC(F)(F)F)c2ccccc2-c2ccccc21)OCC(C)(C)C` is 33 nM; for `O=C(NCC(F)(F)F)C1(CCCCP(=O)(OCc2cccnc2)OCc2cccnc2)c2ccccc2-c2ccccc21` it is 24 nM; for `CCCCOP(=O)(CCCSc1nc(-c2ccccc2)c(-c2ccccc2)o1)OCCCC` it is 6000 nM.
On the same count and under the same terms, in the case of `Cc1cccc(CCCOP(=O)(CCCCC2(C(=O)NCC(F)(F)F)c3ccccc3-c3ccccc32)OCCCc2cccc(C)n2)n1` it was 45 nM; in that of `CCCCOP(=O)(CCCSc1ccncc1)OCCCC`, 27000 nM; in that of `CCCCOP(=O)(CCCCCCC1(C(=O)NCC(F)(F)F)c2ccccc2-c2ccccc21)OCCCC`, 45 nM.
The same measure, in the same setting: in the case of `CCCCOP(=O)(CCCCCSc1nc2ccc(OCC)cc2s1)OCCCC` it was 6000 nM; in that of `CCCCOP(=O)(CCCSc1nc(-c2ccccc2)c(-c2ccccc2)[nH]1)OCCCC`, > 30000 nM; in that of `CCCNC(=O)C1(CCCCP(=O)(OCC)OCC)c2ccccc2-c2ccccc21`, 135 nM.
For `CCCCOP(=O)(CCCOc1cccc2ccccc12)OCCCC`, 30000 nM corresponded to half-maximal inhibition in [1] (IC50).
The same measure, in the same setting: in the case of `O=C(NCC(F)(F)F)C1(CCCCP(=O)(OCc2ccncc2)OCc2ccncc2)c2ccccc2-c2ccccc21` it was 85 nM.
As for `O=C(NC1CCN(CCCC2(C(=O)NCC(F)(F)F)c3ccccc3-c3ccccc32)CC1)c1ccccc1`, the EC50 in the assay with HepG2 [7] is > 3300 nM; with HepG2 [8], 80 nM. In addition, the IC50 in assay [1] is 230 nM.
`O=C(NCC(F)(F)F)C1(CCCCP(=O)(OCc2ccccn2)OCc2ccccn2)c2ccccc2-c2ccccc21` showed an IC50 in [1] of 27 nM.
Still for that read-out and setting: the figure for `CCCCOP(=O)(CCCOc1ccccc1)OCCCC` is 4800 nM.
`Cc1cccc(COP(=O)(CCCCC2(C(=O)NCC(F)(F)F)c3ccccc3-c3ccccc32)OCc2cccc(C)n2)n1` displayed an IC50 in [1] of 11 nM. Besides, the Inhibition with Cricetinae gen. sp. [9] came out at 35%.
On to `CCCCOP(=O)(CCCSc1nc2ccc(OCC)cc2s1)OCCCC`, for which the EC50 was 13200 nM in the assay with HepG2 [7] and 3900 nM in the assay with HepG2 [8]. Besides, in assay [1], the IC50 was 4500 nM.
In the case of `CCCCOP(=O)(CCCSc1nc2ccc(OCC)cc2n1C)OCCCC`, the midpoint of inhibition in assay [1], the IC50, lay at 6000 nM.
Take `CCCCOP(=O)(CCCCC1(C(=O)NCc2ccccn2)c2ccccc2-c2ccccc21)OCCCC`: it took 470 nM to reach half-maximal inhibition in assay [1] (IC50).
The same measure, in the same setting: the figure for `CCCCOP(=O)(CCCCSc1nc2ccc(OCC)cc2s1)OCCCC` is 12000 nM; for `O=C(NCC(F)(F)F)C1(CCCCP(=O)(OCCc2ccccn2)OCCc2ccccn2)c2ccccc2-c2ccccc21` it is 40 nM.
In turn, `O=C1c2ccccc2CN1C1CCN(CCC(c2ccccc2)c2ccccc2)CC1` had an IC50 in assay [1] of 2200 nM.
Same read-out and setting: the figure for `CCCCOP(=O)(CCCCC1(C(=O)NCCN2CCOCC2)c2ccccc2-c2ccccc21)OCCCC` is 500 nM.
The same measure, in the same setting: in the case of `CCOP(=O)(CCCCC1(C(=O)NCC(F)(F)F)c2ccccc2-c2ccccc21)OCC` it was 145 nM; in that of `CCCCNC(=O)C1(CCCCP(=O)(OCCCC)OCCCC)c2ccccc2-c2ccccc21`, 400 nM.
Same read-out and setting: the figure for `CCCCOP(=O)(CCCCCC1(C(=O)NCC(F)(F)F)c2ccccc2-c2ccccc21)OCCCC` is 65 nM.
`CCCCOP(=O)(CCCSc1nc2cc(OCC)ccc2[nH]1)OCCCC` showed an IC50 in assay [1] of 10000 nM.
In assay [1], `C=CCC1(C(=O)NCC)c2ccccc2-c2ccccc21` came in with an IC50 of 2200 nM.
Compound `CCCCOP(=O)(CCCCC1(C(=O)NCC(F)(F)F)c2ccccc2-c2ccccc21)OCCCC` returned an Inhibition in the assay with Cricetinae gen. sp. [10] of 15%. The values for the EC50 with HepG2 [2] and in the assay with HepG2 [3] were > 3300 nM and 7 nM, respectively. In assay [1], this compound displayed an IC50 of 22 nM. The ED30 with Rattus norvegicus [6] was determined as 4 mg/kg; in the assay with Rattus norvegicus [11], 8 mg/kg.
As to `CCCCOP(=O)(CCCCC1(C(=O)NCc2ccc(N)cc2)c2ccccc2-c2ccccc21)OCCCC`, the IC50 in assay [1] was determined as 890 nM.
`O=C(NCC(F)(F)F)C1(CCCCP(=O)(OCCCc2ccccn2)OCCCc2ccccn2)c2ccccc2-c2ccccc21`: the Inhibition in the assay on Cricetinae gen. sp. [12] came out at 15%. The same compound displayed an IC50 in [1] of 25 nM.

The values above are taken from ChEMBL document CHEMBL1145768, “Microsomal triglyceride transfer protein inhibitors: discovery and synthesis of alkyl phosphonates as potent MTP inhibitors and cholesterol lowering agents” (Bioorg Med Chem Lett, 2003).
